Data as given in patent US20050245456A1, “Combination therapy to prevent and treat diarrhea induced by cancer treatment” (Pfizer Inc, priority 2004, published 2005).
Values belong to the molecule of their own block, whether it stands above or below them.

Assays:
[1] = system: MCF-7 breast cancer cells; settings: Otto et al. 1996; cited from earlier work
[2] = Phase 1 trial: diarrhea induced by the isothiazole derivative; type: in vivo, human; settings: almost all subjects at doses greater than 160 mg/day, within the first few days
Experimental: Susceptible subjects are encouraged to adhere to a daily schedule of prophylactic anti-diarrheal agents, such as Loperamide, Octreotide, Loperamide, Tamoxifen, a bulking agent, or an anti-estrogen. To treat the diarrhea in these patients, a therapeutically effective amount of 3-(4-Bromo-2,6-difluoro-benzyloxy)-5-[3-(4-pyrrolidin-1-yl-butyl)-ureido]-isothiazole-4-carboxylic acid amide HCl is administered to a patient in need of such therapy, prior to, simultaneously or sequentially with a therapeutically effective amount of Loperamide, Octreotide, Loperamide, Tamoxifen, a bulking agent, or an anti-estrogen.

[3] = cited from earlier work
[4] = patients who experienced this side-effect during a previous course of chemotherapy; Cascinu et al. 1994; cited from earlier work

SMILES: CC/C(=C(\c1ccccc1)c1ccc(OCCN(C)C)cc1)c1ccccc1 [Tamoxifen]
effect on cell cycle progression [1]: blocks cell cycle progression in G0/G1

diarrhea developed by subjects (CTC grade) [2]: Grade 1 or 2 diarrhea
SMILES: NC(=O)c1c(OCc2c(F)cc(Br)cc2F)nsc1NC(=O)NCCCCN1CCCC1 [3-(4-Bromo-2,6-difluoro-benzyloxy)-5-[3-(4-pyrrolidin-1-yl-butyl)-ureido]-isothiazole-4-carboxylic acid amide]

SMILES: C[C@@H](O)[C@@H]1NC(=O)[C@H](CCCCN)NC(=O)[C@@H](Cc2c[nH]c3ccccc23)NC(=O)[C@H](Cc2ccccc2)NC(=O)[C@@H](NC(=O)[C@H](N)Cc2ccccc2)CSSC[C@@H](C(=O)N[C@H](CO)[C@@H](C)O)NC1=O [Octreotide]
treatment of diarrhea after chemotherapy with 5-fluorouracil ([3]; 11 patients with colorectal cancer, Kennedy et al. 1990): encouraging results | efficacy versus Loperamide in therapy of 5-fluorouracil-induced diarrhea ([3]; randomized trial, Cascinu et al. 1993): more effective than Loperamide | prevention of diarrhea associated with cisplatin [4]: active in preventing diarrhea
